From patent publication US7579468B2, “Methods of modulating neurotrophin-mediated activity” (PainCeptor Pharma Corporation, priority 2005, dated 2009)
Entries after “also recorded” stand apart in the source; their conditions may differ.

What was measured:
PC12 (TrkA & p75) [1] = system: T1, PC12 (TrkA & p75); test: 125I-NGF binding displacement in PC12 cells; set-up: species or system rat; conditions: for PC12 (TrkA & p75) Single point (% max binding) Mean: PC12 cells; for NGF binding displacement, dose-response curve: PC12 cells expressing TrkA and p75, individual experiment
T1 construct: other: Concentration 25 μM; PC12 cells; other: Concentration 50 μM; other: PC12 cells; 125I-NGF ~0.11 nM; other: PC12 cells expressing TrkA and p75; individual experiment; fused on or other part: 125I label on NGF
Procedure: (§1) All cells were incubated at 37° C. in 5% CO2. PC12 cells were maintained in RPMI-1640 medium supplemented with 10% fetal bovine serum (FBS). A875 human melanoma cells were maintained in DMEM with 10% FBS. HEK 293 cells were stably transfected with human TrkA plasmid (see below) and maintained in DMEM with 10% FBS and G418 (600 μg/mL) for selection.
(§2) NGF binding was evaluated using methods familiar to those who are skilled in the art. Briefly, cells expressing one or both NGF receptors (PC12: TrkA+p75; A875: p75 alone; HEK_TrkA: TrkA alone) were harvested by replacing the medium with calcium-magnesium free balanced salt (Grey's) solution and incubating at 37° C. for 15 min. For NGF binding, cells were resuspended at a concentration of 2×10^6 cells/mL in HEPES-Krebs-Ringer (HKR) buffer (10 mM HEPES; 125 mM NaCl; 4.8 mM KCl; 1.3 mM CaCl2; 1.2 mM MgSO4; 1.2 mM KH2PO4; 1 mg/ml BSA; 1 mg/ml glucose; pH 7.4) and exposed to ^125I-NGF (˜0.11 nM) in the presence or absence of varying concentrations of the compound. Non-specific binding was determined for reference by incubating ^125I-NGF with an excess of non-radioactive NGF in the absence of compound. Following a two-hour incubation period at 4° C., ^125I-NGF bound to the cells was quantified in a gamma radiation counter following separation from unbound NGF by filtration or centrifugation through glycerol (10% in HKR). Inhibition of binding was calculated as a percent of the specific binding (calculated as the differential between ^125I-NGF binding in the absence and presence of an excess of non-radioactive NGF without compound). Dose-response inhibition curves were typically generated with seven concentrations of a given compound, with three replicates for each concentration. For most compounds, multiple dose-response curves were generated.

Mice = test: Writhing Test (acetic acid abdominal contraction test); type: in vivo, mouse; conditions: 100 mg/kg i.p., 30 minutes following acetic acid, vehicle 57±1
Procedure: The acetic acid abdominal contraction test (Martinez et al., Pain 1999; 81: 179) was used to determine the efficacy of different compounds in a model of acute visceral chemical nociception. […] Compound or vehicle was administered (i.p. or s.c.) 15-45 minutes prior to the acetic acid injection. Each episode of writhing is characterized by a lengthwise stretching of the torso with a concomitant arching of the back.
Statistical analysis was performed using Prism™ 4.01 software package (GraphPad, San Diego, Calif., USA). The difference in response levels between treatment groups and control vehicle group was analyzed using an ANOVA followed by Bonferroni's method for post-hoc pair-wise comparisons. A p value <0.05 was considered to be significant.

PC12 cells = test: NGF-induced neurite outgrowth in PC12 cells; type: cell-based, rat; conditions: 4 days of exposure to NGF
Procedure: This assay was run as a further functional marker of NGF antagonism and takes advantage of the differentiation of PC12 cells (neurite outgrowth) induced by NGF. Cultures of PC12 cells were grown on Terasaki plates pre-coated with poly-D-lysine. Cells were exposed to NGF (1-50 (preferably 5) ng/ml) to induce neurite outgrowth as described elsewhere [L A Greene & A S Tischler, Establishment of a noradrenergic clonal line of rat adrenal pheochromocytoma cells which respond to nerve growth factor, Proc Natl Acad Sci USA. 1976 July; 73(7): 2424-2428]. In addition to NGF, cells were exposed to varying concentration of the compounds or vehicle. Following 4 days of exposure to NGF in the presence or absence of compound, neurite outgrowth was quantified. A neurite was scored if its caliber from origin to terminal was approximately the same and the length was equal to or greater than 1.5 the cell body diameter. The number of neurite bearing cells per total number of viable cells was calculated for each condition; the number of cells with neurites in the presence of NGF (without compound exposure) was considered to represent maximal (100%) outgrowth, to which the inhibitory effect of compounds of the invention on NGF-induced outgrowth was compared.

PC12 (TrkA & p75) [2] = system: T2, PC12 (TrkA & p75); test: 125I-NGF binding displacement in PC12 cells; set-up: species or system rat; conditions: PC12, A875 and HEK_TrkA cells taken together
T2 construct: other: PC12, A875 an; fused on or other part: 125I label on NGF
Procedure: as §1, §2

Male Sprague-Dawley rats = test: Spared Nerve Injury (SNI) model of neuropathic pain; type: in vivo, rat; conditions: Von Frey filaments, 90 min post-treatment, Compound 11 3 and 10 mg/kg i.p., Compound 107 20 mg/kg i.p.
From the text: The Spared Nerve Injury (SNI) model (Decosterd et al., Pain 2000; 87: 149) was used to induce chronic neuropathic pain. Male Sprague-Dawley rats were anesthetized with isoflurane, and two of the three terminal branches of the sciatic nerve (tibial and common peroneal nerves) were transected, leaving the remaining sural nerve intact. Animals develop thermal and mechanical hyperalgesia and allodynia, as well as spontaneous pain or dysesthesia that last month after the nerve injury.
Mechanical allodynia testing: Pre- and post-injury baselines as well as post-treatment values (vehicle or compound-treated animals) for mechanical allodynia were evaluated using Von Frey filaments (Stoelting, Wood Dale, Ill., USA) with varying stiffness. […] The mean and standard error of the mean (SEM) were determined for each paw in each treatment group (ipsilateral/injured paw and contralateral/non-injured paw). […] Effects of compounds were evaluated two weeks after the injury. Compound or vehicle was administered (i.p. or s.c.) and effects on mechanical allodynia were measured at different time points after dosing (e.g., 30, 60 and 90 min.).
Data analysis: Statistical analyses were conducted using Prism™ 4.01 (GraphPad, San Diego, Calif., USA). Mechanical hypersensitivity of the injured paw was determined by comparing contralateral to ipsilateral paw values within the vehicle group at each time point. […]

A875: p75 alone = test: 125I-NGF binding displacement in A875 cells; set-up: species or system human; conditions: A875 cells expressing p75; individual experiment
Procedure: as §1, §2

[3] = system: HEK_TrkA: TrkA alone (human TrkA); test: 125I-NGF binding displacement in HEK_TrkA cells; conditions: individual experiment
Procedure: as §1
Expression of human TrkA in HEK cells was achieved by transfecting the cells with the TrkA expression vector using Lipofectamine (Invitrogen) reagent. HEK cells were plated in 100 mm Petri dishes at a concentration of 10^6 cells per dish. The next day, a solution of DNA diluted in 1 mL OptiMEM (Invitrogen) per dish was prepared and incubated for 15 min at room temperature. […]
NGF binding was evaluated using methods familiar to those who are skilled in the art. […] Non-specific binding was determined for reference by incubating ^125I-NGF with an excess of non-radioactive NGF in the absence of compound. Following a two-hour incubation period at 4° C., ^125I-NGF bound to the cells was quantified in a gamma radiation counter following separation from unbound NGF by filtration or centrifugation through glycerol (10% in HKR). Inhibition of binding was calculated as a percent of the specific binding (calculated as the differential between ^125I-NGF binding in the absence and presence of an excess of non-radioactive NGF without compound). […]

## NNC(=O)NN1C(=O)c2cc(S(=O)(=O)[O-])cc3c(N)c(S(=O)(=O)[O-])cc(c23)C1=O.[K+].[K+] [Compound 52, 6-Amino-1,3-dioxo-2-amino-ureido-2,3-dihydro-1H-benzo[de]isoquinoline-5,8-disulfonic acid-di-potassium salt]
PC12 (TrkA & p75) [1]; Concentration 50 μM
  PC12 (TrkA & p75) Single point (% max binding) Mean: * (* >50)

## O=C(O)CCCN1C(=O)c2cccc3cc([N+](=O)[O-])cc(c23)C1=O [Compound 63, 4-(5-Nitro-1,3-dioxo-1H,3H-benzo[de]isoquinolin-2-yl)-butyric acid]
Mice
  Number of abdominal contractions (writhing): 9±3

## O=C(O)CCCN1C(=O)c2cc(Br)cc3cc([N+](=O)[O-])cc(c23)C1=O [Compound 89, 4-(5-Bromo-8-nitro-1,3-dioxo-1H,3H-benzo[de]isoquinolin-2-yl)-butyric acid]
PC12 (TrkA & p75) [1]; Concentration 50 μM
  PC12 (TrkA & p75) Single point (% max binding) Mean: ** (30 < ** <50)

## NC(=O)c1cc2c3c(cccc3c1)C(=O)N(CCCC(=O)O)C2=O [Compound 95, 4-(5-Carbamoyl-1,3-dioxo-1H,3H-benzo[de]isoquinolin-2-yl)-butyric acid]
PC12 cells
  Inhibition of NGF-induced neurite outgrowth: effectively inhibits neurite outgrowth induced by NGF

## O=C(O)CCCN1C(=O)c2cccc3c(C(=O)c4ccccc4)ccc(c23)C1=O [Compound 99, 4-(6-Benzoyl-1,3-dioxo-1H,3H-benzo[de]isoquinolin-2-yl)-butyric acid]
PC12 (TrkA & p75) [1]; Concentration 25 μM
  PC12 (TrkA & p75) Single point (% max binding) Mean: *** (* < *** <30)

## O=C(O)CCCN1C(=O)c2cccc3c(C(=O)O)ccc(c23)C1=O [Compound 100, 2-(3-Carboxy-propyl)-1,3-dioxo-2,3-dihydro-1H-benzo[de]isoquinoline-6-carboxylic acid]
PC12 (TrkA & p75) [1]; Concentration 25 μM
  PC12 (TrkA & p75) Single point (% max binding) Mean: *** (* < *** <30)

## O=C1Nc2ccc([N+](=O)[O-])c3cccc1c23 [Compound 103, 6-Nitro-1H-benzo[cd]indol-2-one]
PC12 (TrkA & p75) [1]; Concentration 25 μM
  PC12 (TrkA & p75) Single point (% max binding) Mean: * (* >50)

## O=C(O)CCCN1C(=O)c2cccc3c(Cl)ccc(c23)C1=O [Compound 104, 4-(6-Chloro-1,3-dioxo-1H,3H-benzo[de]isoquinolin-2-yl)-butyric acid]
PC12 (TrkA & p75) [1]; Concentration 25 μM
  PC12 (TrkA & p75) Single point (% max binding) Mean: ** (30 < ** <50)

## CC(=O)Nc1cc2c3c(cc(NC(C)=O)cc3c1)C(=O)N(CCCS(=O)(=O)O)C2=O [Compound 107, 3-(5,8-Bis-acetylamino-1,3-dioxo-1H,3H-benzo[de]isoquinolin-2-yl)-propane-1-sulfonic acid]
PC12 (TrkA & p75) [2]
  Block of NGF binding to TrkA and/or p75 (summary of FIGS. 1B, 2A, 2B, 4A, 4B, 6A, 6B, 7A, 8A, 8B): effectively block NGF binding to TrkA and/or p75
PC12 (TrkA & p75) [1]
  NGF binding displacement, dose-response curve: effectively blocks NGF binding to cells expressing TrkA and p75
PC12 cells
  Inhibition of NGF-induced neurite outgrowth: effectively inhibits neurite outgrowth induced by NGF
Male Sprague-Dawley rats
  Effect on mechanical allodynia in the SNI model: significant dose-dependent reversal of the mechanical allodynia; also recorded: significant antinociceptive effects
A875: p75 alone
  NGF binding displacement, dose-response curve: effectively blocks NGF binding to cells expressing p75
[3]
  NGF binding displacement, dose-response curve: effectively blocks NGF binding to cells expressing TrkA

## CN(C)S(=O)(=O)c1ccc2c3c(cccc13)C(=O)N(CCCC(=O)O)C2=O [Compound 112, 4-(6-Dimethylsulfamoyl-1,3-dioxo-1H,3H-benzo[de]isoquinolin-2-yl)-butyric acid]
PC12 (TrkA & p75) [1]; Concentration 50 μM
  PC12 (TrkA & p75) Single point (% max binding) Mean: *** (* < *** <30)

## O=C(O)CCCN1C(=O)c2cccc3c(S(=O)(=O)N4CCOCC4)ccc(c23)C1=O [Compound 113, 4-[6-(Morpholine-4-sulfonyl)-1,3-dioxo-1H,3H-benzo[de]isoquinolin-2-yl]-butyric acid]
PC12 (TrkA & p75) [1]; Concentration 50 μM
  PC12 (TrkA & p75) Single point (% max binding) Mean: ** (30 < ** <50)

## CN(C)S(=O)(=O)c1cc2c3c(cccc3c1)C(=O)N(CCCC(=O)O)C2=O [Compound 114, 4-(5-Dimethylsulfamoyl-1,3-dioxo-1H,3H-benzo[de]isoquinolin-2-yl)-butyric acid]
PC12 (TrkA & p75) [1]; Concentration 50 μM
  PC12 (TrkA & p75) Single point (% max binding) Mean: ** (30 < ** <50)

## N#Cc1cc2c3c(cccc3c1)C(=O)N(CCCC(=O)O)C2=O [Compound 124, 4-(5-Cyano-1,3-dioxo-1H,3H-benzo[de]isoquinolin-2-yl)-butyric acid]
PC12 (TrkA & p75) [2]
  Block of NGF binding to TrkA and/or p75 (summary of FIGS. 1B, 2A, 2B, 4A, 4B, 6A, 6B, 7A, 8A, 8B): effectively block NGF binding to TrkA and/or p75
PC12 (TrkA & p75) [1]
  NGF binding displacement, dose-response curve: effectively blocks NGF binding to cells expressing TrkA and p75
PC12 cells
  Inhibition of NGF-induced neurite outgrowth: effectively inhibit neurite outgrowth induced by NGF
A875: p75 alone
  NGF binding displacement, dose-response curve: effectively blocks NGF binding to cells expressing p75
